Test results from paper PMC6691785, “Computer-aided design and synthesis of 3-carbonyl-5-phenyl-1H-pyrazole as highly selective and potent BRAFV600E and CRAF inhibitor” (Journal of Enzyme Inhibition and Medicinal Chemistry, 2019).

What was measured:
[1] = target: T1, BRAFV600E (Homo sapiens, UniProt P15056, V600E); experiment: Enzymatic activity (IC50) on BRAFV600E; assay type: biochemical; conditions: for IC50: enzymatic activity; for times more potent for BRAFV600E than the previous series: versus N-(3-(3-alkyl-1H-pyrazol-5-yl)phenyl)-aryl amide derivatives
Method: (§1) The IC50 values for BRAFV600E and CRAF were measured for each of the 12 compounds synthesised (Table 1). The compounds were all designed as 1, 3, 5-substituted benzyl group hydrophobic tails to maintain the selectivity of the previous series.

[2] = target: T2, CRAF (Homo sapiens, UniProt P04049); experiment: Enzymatic activity (IC50) on CRAF; assay type: biochemical; conditions: for IC50: enzymatic activity
Method: as §1

[3] = target: BRAFWT (Homo sapiens, UniProt P15056); experiment: Enzymatic activity (IC50) on BRAFWT; assay type: biochemical
Method: (§2) Next, we used kinase panel screening in duplicate for compound 23b over 35 different kinases at a single-dose concentration of 10 μM (Table 2). The compound was indeed a selective BRAFV600E and CRAF inhibitor with an excellent selectivity profile. This compound has an inhibitory activity of more than 90% on CRAF and BRAF V600E at a concentration of 10 μM; the inhibition activity was less than 20% for most other kinases, including wild-type BRAF. We further determined the IC50 value of 23b on wild-type BRAF to be over than 20 μM, where we could confirm selectivity (Table 3). In order to investigate the effect of 23b in living cells, the human colon cancer cell line […] expressing wild-type BRAF and the malignant melanoma A375 cell line expressing BRAFV600E were treated with increasing concentrations of 23b.

[4] = system: human colon cancer cell line SW620 expressing wild-type BRAF; experiment: MTT assay, SW620 cells; assay type: cell-based
Method: as §2

[5] = system: malignant melanoma A375 cell line expressing BRAFV600E; experiment: MTT assay, A375 cells; assay type: cell-based; conditions: Homo sapiens, A-375
Method: as §2

[6] = system: 35 different kinases; experiment: Kinase panel screening, single dose 10 μM, other kinases of the panel; assay type: biochemical; conditions: in duplicate, most other kinases of the 35-kinase panel
Method: as §2
(§3) We designed and synthesized selective, efficacious inhibitors for BRAFV600E and CRAF by in silico modeling using the Maestro programme.[20] […] We attempted kinase panel screening for compound 23b over 35 different kinases at a single-dose concentration of 10 μM (Table 2, performed in duplicate). The compound was, indeed, a selective BRAFV600E and CRAF inhibitor with an excellent selectivity profile. This compound has an inhibitory activity of 99% on BRAF V600E and CRAF at this concentration. The inhibition activity was less than 20% in most other kinases, including BRAFWT.

[7] = target: T1, BRAFV600E; experiment: Kinase panel screening, single dose 10 μM, BRAF V600E; assay type: biochemical; conditions: in duplicate, read-out: inhibitory activity on BRAF V600E
Method: as §2, §3

[8] = target: T2, CRAF; experiment: Kinase panel screening, single dose 10 μM, CRAF; assay type: biochemical; conditions: in duplicate, read-out: inhibitory activity on CRAF
Method: as §2, §3

[9] = target: wild-type BRAF (Homo sapiens, UniProt P15056); experiment: Kinase panel screening, single dose 10 μM, wild-type BRAF; assay type: biochemical; conditions: in duplicate
Method: as §2, §3

[10] = target: T2, CRAF; conditions: selectivity over BRAFWT; cited from earlier work
[11] = target: T1, BRAFV600E; conditions: selectivity over BRAFWT; cited from earlier work

T1 sequence (P15056 whole entry V600E): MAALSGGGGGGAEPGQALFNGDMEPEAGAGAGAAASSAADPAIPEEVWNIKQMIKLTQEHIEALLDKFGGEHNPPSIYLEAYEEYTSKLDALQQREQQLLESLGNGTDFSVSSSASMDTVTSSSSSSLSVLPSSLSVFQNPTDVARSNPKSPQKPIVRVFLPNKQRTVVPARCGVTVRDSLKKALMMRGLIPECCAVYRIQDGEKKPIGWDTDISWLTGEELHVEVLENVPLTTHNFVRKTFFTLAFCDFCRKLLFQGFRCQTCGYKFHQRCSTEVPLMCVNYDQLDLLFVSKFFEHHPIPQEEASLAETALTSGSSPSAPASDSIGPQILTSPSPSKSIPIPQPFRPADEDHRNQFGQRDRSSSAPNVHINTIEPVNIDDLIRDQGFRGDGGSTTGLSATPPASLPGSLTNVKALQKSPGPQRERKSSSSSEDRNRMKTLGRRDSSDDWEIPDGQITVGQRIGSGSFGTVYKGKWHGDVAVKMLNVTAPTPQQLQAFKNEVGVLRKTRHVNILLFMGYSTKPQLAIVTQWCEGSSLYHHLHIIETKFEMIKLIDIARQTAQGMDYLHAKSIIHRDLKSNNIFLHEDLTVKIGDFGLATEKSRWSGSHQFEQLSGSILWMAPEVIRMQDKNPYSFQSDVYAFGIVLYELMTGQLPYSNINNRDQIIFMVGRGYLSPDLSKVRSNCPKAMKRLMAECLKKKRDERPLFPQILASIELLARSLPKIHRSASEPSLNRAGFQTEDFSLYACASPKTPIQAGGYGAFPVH
Chain of BRAFWT (P15056 whole entry): as the sequence (P15056 whole entry V600E) above, with E600V counted along it
T2 sequence (P04049 whole entry): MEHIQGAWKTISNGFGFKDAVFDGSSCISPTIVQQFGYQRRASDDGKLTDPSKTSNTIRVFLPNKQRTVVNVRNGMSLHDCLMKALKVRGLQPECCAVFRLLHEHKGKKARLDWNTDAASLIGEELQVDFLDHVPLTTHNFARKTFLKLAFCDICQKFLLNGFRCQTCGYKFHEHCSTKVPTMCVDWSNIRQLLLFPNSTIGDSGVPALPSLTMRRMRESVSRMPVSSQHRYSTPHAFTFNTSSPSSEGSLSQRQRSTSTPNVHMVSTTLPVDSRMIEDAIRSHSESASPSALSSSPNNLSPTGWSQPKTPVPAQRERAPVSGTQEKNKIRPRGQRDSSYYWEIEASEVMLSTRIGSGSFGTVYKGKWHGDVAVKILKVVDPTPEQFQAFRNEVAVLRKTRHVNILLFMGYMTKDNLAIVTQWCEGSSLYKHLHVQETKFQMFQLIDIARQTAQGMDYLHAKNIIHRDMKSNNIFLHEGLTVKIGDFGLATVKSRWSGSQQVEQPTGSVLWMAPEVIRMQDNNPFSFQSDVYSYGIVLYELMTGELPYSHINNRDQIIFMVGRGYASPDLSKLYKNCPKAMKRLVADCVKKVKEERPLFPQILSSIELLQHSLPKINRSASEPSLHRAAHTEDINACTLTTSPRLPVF
Chain of wild-type BRAF (P15056 whole entry): as the sequence (P15056 whole entry V600E) above, with E600V counted along it

Row | SMILES | IC50 [1] [nM] | IC50 [2] [nM] | IC50 [3] [nM] | other results
1 | Cc1nccn1-c1cc(C(=O)Nc2cccc(-c3cc(C(=O)NCCN4CCOCC4)[nH]n3)c2)cc(C(F)(F)F)c1 [Compound 20b] | 980 | 590 | 13100 | 
2 | Cc1cn(-c2cc(C(=O)Nc3cccc(-c4cc(C(=O)NCCN5CCNCC5)[nH]n4)c3)cc(C(F)(F)F)c2)cn1 [Compound 22c] | 1510 | 580 |  | 
3 | CN1CCN(c2cc(C(=O)Nc3cccc(-c4cc(C(=O)NCCN5CCOCC5)[nH]n4)c3)cc(C(F)(F)F)c2)CC1 [Compound 20d] | 2700 | 1150 | > 20000 | 
4 | Cc1nccn1-c1cc(C(=O)Nc2cccc(-c3cc(C(=O)OCCN4CCOCC4)[nH]n3)c2)cc(C(F)(F)F)c1 [Compound 23b] | 100 | 20 | > 20000 | times more potent for BRAFV600E than the previous series [1]: 7 times; times more potent for BRAFV600E than the previous series ([1]; listed as 23 b): seven; GI50 ([4]; Homo sapiens, SW-620, SW620 cells expressing BRAFWT): > 10000 nM; inhibition of the proliferation ([4]; increasing concentrations, SW620 cells expressing BRAFWT): not in the cells expressing BRAFWT; GI50 [5]: 70 nM; inhibition activity for most other kinases [6]: less than 20%; inhibition at 10 µM [7]: > 90%; inhibition at 10 µM [8]: > 90%; times more potent for CRAF than the previous series ([2]; versus N-(3-(3-alkyl-1H-pyrazol-5-yl)phenyl)-aryl amide derivatives): 5 times; inhibition at 10 µM [9]: < 20%
5 | O=C(Nc1cccc(-c2cc(C(=O)OCCN3CCOCC3)[nH]n2)c1)c1cc(N2CCOCC2)cc(C(F)(F)F)c1 [Compound 23a] | 680 | 130 | > 20000 | 
6 | Cc1cn(-c2cc(C(=O)Nc3cccc(-c4cc(C(=O)NCCN5CCOCC5)[nH]n4)c3)cc(C(F)(F)F)c2)cn1 [Compound 20c] | 910 | 580 | 14700 | 
7 | O=C(Nc1cccc(-c2cc(C(=O)NCCN3CCOCC3)[nH]n2)c1)c1cc(N2CCOCC2)cc(C(F)(F)F)c1 [Compound 20a] | 2800 | 1500 | 16400 | 
8 | CC(C)c1cc(-c2cccc(NC(=O)c3cc(N4CCN(C)CC4)cc(C(F)(F)F)c3)c2)[nH]n1 [Compound 2, N-(3–(3-alkyl-1H-pyrazol-5-yl)phenyl)-aryl amide] |  |  |  | times more potent on CRAF than on BRAFWT [10]: 126 times; times more potent on BRAFV600E than on BRAFWT [11]: 20 times
9 | O=C(Nc1cccc(-c2cc(C(=O)NCCN3CCNCC3)[nH]n2)c1)c1cc(N2CCOCC2)cc(C(F)(F)F)c1 [Compound 22a] | 2090 | 1600 | > 20000 | 

Now from value to compound, other results behind:

Row | IC50 [1] [nM] | IC50 [2] [nM] | IC50 [3] [nM] | SMILES | other results
10 | 330 | 60 | > 20000 | Cc1cn(-c2cc(C(=O)Nc3cccc(-c4cc(C(=O)OCCN5CCOCC5)[nH]n4)c3)cc(C(F)(F)F)c2)cn1 [Compound 23c] | 
11 | 1260 | 830 | 12900 | Cc1nccn1-c1cc(C(=O)Nc2cccc(-c3cc(C(=O)NCCN4CCNCC4)[nH]n3)c2)cc(C(F)(F)F)c1 [Compound 22b] | 
12 | 400 | 210 | > 20000 | O=C(Nc1cccc(-c2cc(C(=O)OCCN3CCCCC3)[nH]n2)c1)c1cc(N2CCOCC2)cc(C(F)(F)F)c1 [Compound 24] | 
13 | 680 | 160 | > 20000 | CN1CCN(c2cc(C(=O)Nc3cccc(-c4cc(C(=O)OCCN5CCOCC5)[nH]n4)c3)cc(C(F)(F)F)c2)CC1 [Compound 23d] | 
